Experimental data taken from US12233086B2, “Biomarkers for neurogenerative disease” (Neuvivo, Inc., priority 2022, dated 2025).
Several values for one entry are separate records, joined by “and”; a condition that tells them apart may be missing. Identical values can stand only once. Like-named read-outs stand apart in the source and are kept apart here.

Tests used:
ALS patients [1] = details: plasma CRP greater than 1.13 mg/L; rates of ALSFRS-R and vital capacity decline; cited from earlier work
TGFB1 = details: age≤65, baseline CRP>1.13 mg/L; p=0.02 for month 6
Method: (§1) Participants received a total of 20 infusions administered intravenously monthly over 6 cycles during a 6-month double-blind treatment period. […] The start of each cycle was separated by four weeks. Cycle 1 consisted of 30 min infusions over 5 consecutive days. Cycles 2, 3, 4, 5, and 6 each consisted of 3 consecutive daily infusions. ALSFRS-R and vital capacity measurements were performed monthly. The average rate of ALS disease progression (Average DP Rate) at baseline was defined as ALSFRS-R score change per month [(48−ALSFRS-R score at baseline)/months since ALS symptom onset from baseline]]. […] Plasma specimens for biomarker analysis were obtained at the beginning and end of the study (month 6, one month after last dose). All patients had to have completed the study to provide end of study plasma. The units expressed in this Example are hs-CRP units, abbreviated as CRP.

CD16 = details: phase 1 dose ascending study in ALS patients; cited from earlier work
ALS patients [2] = tested on: ALS patients
ALS patients [3] = details: for decline in VC over 6 months vs placebo (words): CRP>1.13 mg/L
Method: as §1
The clinical outcome data evaluated for the current study were the forced vital capacity measurements performed on all patients at baseline and every month until the end of study. Using the patient's age and height with the actual respiratory volume measured, the % predicted vital capacity (VC) was calculated as described.

TNF-a = details: age 40-65, CRP>1.13 mg/L
Method: (§2) Source of patient specimens: The plasma specimens had been stored at −80° C. since the trial ended and were all evaluated for biomarker levels.

IL-8 = details: age 40-65, CRP>1.13 mg/L
Method: as §2

IL-6 = details: age 40-65, CRP>1.13 mg/L
Method: as §2

NfL = details: 6 months; p=0.09
LPS:EGF = details: ratio increased over time in placebo
LBP = tested on: LBP
Description: (§3) Description of ALS Phase 2A trial and participants: Participants received a total of infusions administered intravenously over 6 cycles during a 25-week double-blind treatment period. There were 4 weeks between the start of each cycle. Cycle 1 consisted of 5 consecutive daily infusions. Cycles 2, 3, 4, 5, and 6 each consisted of 3 consecutive daily infusions. Plasma specimens for biomarker analysis were obtained at the beginning and end of study.
as §2

sCD163 = tested on: sCD163
Description: as §3, §2

IL-18 = tested on: IL-18
Description: as §3, §2

EGF = tested on: EGF
Description: as §3, §2

IL-10 = tested on: IL-10
Description: as §3, §2

HGF = tested on: HGF
Description: as §3, §2

Neopterin = tested on: Neopterin
Description: as §3, §2

LPS = tested on: LPS
Description: as §3, §2

[4] = CRP>1.13 mg/L, listed as sodium chlorite
[5] = NP001 2 mg/kg, N 59, age≤65, CRP>1.13 mg/L
[6] = NP001 2 mg/kg, N 64, age≤65, CRP>1.13 mg/L
[7] = NP001 2 mg/kg, N 68, age≤65, CRP>1.13 mg/L
[8] = NP001 2 mg/kg, N 69, age≤65, CRP>1.13 mg/L
[9] = NP001 2 mg/kg, N 72, age≤65, CRP>1.13 mg/L
[10] = NP001 2 mg/kg, N 74, age≤65, CRP>1.13 mg/L
[11] = NP001 2 mg/kg, N 14, age 40-65, CRP>1.13 mg/L, six months
[12] = CRP>1.13 mg/L, aged 40-65, Wilcoxon p 0.02
[13] = CRP>1.13 mg/L, aged 40-65, Wilcoxon p 0.04

sodium chlorite [NP001]
disease progression vs placebo, post hoc evaluation of phase 2 studies (ALS patients [1]): slowed disease progression
plasma TGFB1 levels over the 6-month trial vs placebo (TGFB1): significantly increased
monocyte activation marker CD16 (CD16): dose dependent down regulation
ALSFRS-R score lost over six months (ALS patients [2]; 2 mg/kg, CRP>1.13 mg/L, age 40-65, placebos lost 4.6 units (p=0.03)): 1.2 units
proportion of non-progressors (no decrease in ALSFRS-R score at 6 months) (ALS patients [2]; 2 mg/kg, age 40-65, CRP>1.13 mg/L, placebo 2 out of 17): 6 out of 15
decline in ALSFRS-R over 6 months vs placebo (words) (ALS patients [2]; CRP>1.13 mg/L): highly significant difference
non-progression rate (no decrease in ALSFRS-R score at 6 months) (ALS patients [2]; CRP>1.13 mg/L, age 40-65, placebos less than 10% (p=0.08)): 35%
decline in ALSFRS-R over 6 months vs placebo (words) (ALS patients [2]; [4]): significantly slowed
relationship between drug dose and change in ALSFRS-R score over six months (ALS patients [2]; plasma CRP above the median value (1.13 mg/L)): dose responsive relationship
clinical activity in all ALS patients of the phase 2A study (ALS patients [2]; symptom onset within the past three years, no CRP or age cutoff): did not show significant clinical activity
average VC lost per month (ALS patients [3]; 2 mg/kg, age≤65, CRP>1.13 mg/L, placebos 2.1%): 0.75 % VC per month
decline in VC over 6 months vs placebo (words) (ALS patients [3]): improved
decline in VC over 6 months vs placebo (words) (ALS patients [3]; listed as sodium chlorite): significantly slowed
% VC change from baseline, Month 6, Mean (ALS patients [3]; [5]): Mean: −9.1%
% VC change from baseline, Month 6, Median (ALS patients [3]; [5]): Median: −5.4%
% VC change from baseline, Month 5, Mean (ALS patients [3]; [6]): Mean: −9.4%
% VC change from baseline, Month 5, Median (ALS patients [3]; [6]): Median: −6.4%
% VC change from baseline, Month 4, Mean (ALS patients [3]; [7]): Mean: −8.1%
% VC change from baseline, Month 4, Median (ALS patients [3]; [7]): Median: −5.4%
% VC change from baseline, Month 3, Mean (ALS patients [3]; [8]): Mean: −6.5%
% VC change from baseline, Month 3, Median (ALS patients [3]; [8]): Median: −3.8%
% VC change from baseline, Month 2, Mean (ALS patients [3]; [9]): Mean: −4.6%
% VC change from baseline, Month 2, Median (ALS patients [3]; [9]): Median: −2.6%
% VC change from baseline, Month 1, Mean (ALS patients [3]; [10]): Mean: −2.5%
% VC change from baseline, Month 1, Median (ALS patients [3]; [10]): Median: −0.9%
mean % VC change from baseline by the end of study, low CRP group (ALS patients [3]; age≤65, CRP<1.13 mg/L, Placebo −13.5%, p=0.83): −16.4%
slower rate of VC loss compared to placebo (ALS patients [3]; age≤65, CRP>1.13 mg/L, end of six-month study, p=0.05): > 64% and 64%
plasma TNF-a values over the six-month study (TNF-a): within the normal range and did not change
plasma IL-8 values over the six-month study (IL-8): within the normal range and did not change
plasma IL-6 values over the six-month study (IL-6): within the normal range and did not change
plasma NfL in treated non-progressors compared to progressors (NfL): trend towards a loss of plasma NfL
ratio of LPS to EGF, trend over time (LPS:EGF): decreased over time
plasma LBP change relative to placebo over 6 months (LBP; CRP>1.13 mg/L): decreased
LBP: % difference between NP001-treated and placebo at 6 months (% median change from baseline) (LBP; CRP>1.13 mg/L, aged 40-65, Wilcoxon p 0.006): −25.9%
% LBP change from baseline, Mean (LBP; [11]): −1.6%
% LBP change from baseline, Median (LBP; [11]): −5.4%
plasma sCD163 change relative to placebo over 6 months (sCD163; CRP>1.13 mg/L): decreased
sCD163: % difference between NP001-treated and placebo at 6 months (% median change from baseline) (sCD163; [12]): −19.6%
% CD163 change from baseline, Mean (sCD163; [11]): −3.5%
% CD163 change from baseline, Median (sCD163; [11]): −5.9%
IL-18: % difference between NP001-treated and placebo at 6 months (% median change from baseline) (IL-18; [12]): −58.3%
plasma IL-18 change relative to placebo over 6 months (words) (IL-18; [4]): decreased
% IL-18 change from baseline, Mean (IL-18; [11]): 25.8%
% IL-18 change from baseline, Median (IL-18; [11]): −2.1%
plasma EGF change relative to placebo over 6 months (EGF; CRP>1.13 mg/L): increased
EGF: % difference between NP001-treated and placebo at 6 months (% median change from baseline) (EGF; [13]): 32.4%
% EGF change from baseline, Mean (EGF; [11]): 64.3%
% EGF change from baseline, Median (EGF; [11]): 6.5%
plasma IL-10 change relative to placebo over 6 months (IL-10; CRP>1.13 mg/L): increased
IL-10: % difference between NP001-treated and placebo at 6 months (% median change from baseline) (IL-10; [12]): 18.6%
% IL-10 change from baseline, Mean (IL-10; [11]): 38.8%
% IL-10 change from baseline, Median (IL-10; [11]): 0.0%
plasma HGF change relative to placebo over 6 months (HGF; CRP>1.13 mg/L): decreased
HGF: % difference between NP001-treated and placebo at 6 months (% median change from baseline) (HGF; [12]): −31.4%
% HGF change from baseline, Mean (HGF; [11]): −7.6%
% HGF change from baseline, Median (HGF; [11]): −14.3%
plasma neopterin change relative to placebo over 6 months (Neopterin; CRP>1.13 mg/L): increased
Neopterin: % difference between NP001-treated and placebo at 6 months (% median change from baseline) (Neopterin; [13]): 18.1%
% Neopterin change from baseline, Mean (Neopterin; [11]): 13.9%
% Neopterin change from baseline, Median (Neopterin; [11]): 10.8%
LPS: % difference between NP001-treated and placebo at 6 months (% median change from baseline) (LPS; [13]): −51.8%
plasma LPS change relative to placebo over 6 months (words) (LPS; [4]): decreased
% LPS change from baseline, Mean (LPS; [11]): −22.0%
% LPS change from baseline, Median (LPS; [11]): −30.4%
